Reference: PubChem BioAssay AID462 (Columbia University Molecular Screening Center, 2006)
Calls of active or inactive are those of the source.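 The calls were made as follows: active = activity score of at least 10, based on curve potency, or else summed standardized inhibition across doses; inactive = the rest.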

How the values were obtained:
[1] = inhibitors of NFkB p65 nuclear translocation, confirmation, imaging, HUVEC, TNFalpha stimulation, p65 immunofluorescence (AID 462); conditions: HUVEC TNFa-induced p65 nuclear translocation, imaging; at 8 µM (top of the series)
[2] = test system: HUVEC TNFa-induced p65 nuclear translocation, imaging; assay: as above

## Cc1nc(NC2=NCN(CCc3ccccc3)CN2)nc2c(C)cccc12
[1]
  inhibition: 1% (inactive)

## COc1ccc(OCC(=O)OCCN(C)C)cc1
[1]
  inhibition: 6.8% (inactive)

## COc1cc(C(O)c2nc3ccccc3n2C)cc(OC)c1OC (configuration not stated)
[1]
  inhibition: -5.7% (inactive)

## CCC(NC(=O)Nc1nnc(C(F)(F)F)s1)(C(F)(F)F)C(F)(F)F
[1]
  inhibition: -22.3% (inactive)

## COc1ccccc1CN1CC(C(=O)N2CCN(c3ccc(F)cc3)CC2)CC1=O (configuration not stated)
[1]
  inhibition: 1.4% (inactive)

## C[C@H]1CCC/C=C/C2C[C@H](O)CC2[C@H](O)/C=C/C(=O)O1 (some centres not stated)
[2]
  IC50: 40 nM

## CCC1Oc2ccccc2N(CC(=O)Nc2ccc(OC)cc2OC)C1=O (configuration not stated)
[1]
  inhibition: -5% (inactive)

## Cc1ccc(Cn2ncc3c(N4CCN(Cc5ccc(Cl)cc5)CC4)ncnc32)cc1
[1]
  inhibition: -0.2% (inactive)

## COC(=O)CCC(NC(=O)c1cc(-c2ccc3c(c2)OCCO3)oc1C)C(=O)OC (configuration not stated)
[1]
  inhibition: -1.9% (inactive)

## COC(=O)c1ccc(N2C(=O)CC(N3CCN(C(=O)c4ccco4)CC3)C2=O)cc1 (configuration not stated)
[1]
  inhibition: 11.1% (inactive)

## COc1cc(C)nc(OCCNC(=O)COc2ccc(Cl)cc2C)n1
[1]
  inhibition: 0.4% (inactive)

## Nn1c(SCC(=O)Nc2ccc(F)cc2)nnc1-c1cccnc1
[1]
  inhibition: -0.4% (inactive)

## COc1ccc(N2CCN(CCCNC(=O)C3CCCN(S(=O)(=O)c4cnc[nH]4)C3)CC2)cc1 (configuration not stated)
[1]
  inhibition: 3.2% (inactive)

## COc1cc([C@@H]2c3cc4c(cc3[C@H](O)[C@H]3COC(=O)[C@H]23)OCO4)cc(OC)c1OC
[1]
  inhibition: 26.3%

## CCn1c(C(C#N)/C(=N\S(=O)(=O)c2cccs2)c2ccccc2)nc2ccccc21 (configuration not stated)
[1]
  inhibition: -1.6% (inactive)

## O=C(CSc1nnc(SCc2ccc(Cl)cc2)s1)N1CCN(C(=O)c2ccco2)CC1
[1]
  inhibition: 5.9% (inactive)

## CN(C(=O)COc1cc(=O)n(C)c2ccccc12)c1ccc(Br)cc1
[1]
  inhibition: 2.8% (inactive)

## COc1ccc(C(NC(=O)c2ccco2)c2ccc(OC)c(OC)c2)cc1 (configuration not stated)
[1]
  inhibition: -3.1% (inactive)

## Cc1cc(C)n(CC2CC(=O)N(c3cc(Cl)cc(Cl)c3)C2=O)n1 (configuration not stated)
[1]
  inhibition: 6.8% (inactive)

## COc1ccc(CC(=O)Nc2ccc(OC)c(NC(=O)c3ccco3)c2)cc1
[1]
  inhibition: -6.4% (inactive)

## Cc1cc(C(C)(C)C)c(O)c(C)c1CC1=NCCN1
[1]
  inhibition: 7.9% (inactive)

## CCOc1ccc(S(=O)(=O)N(C)C)cc1-c1nc2c(C(C)(C)C)nn(C)c2c(=O)[nH]1
[1]
  inhibition: -7.2% (inactive)

## CCOc1ccccc1C(=O)N1CCN(c2cccc(Cl)c2)CC1
[1]
  inhibition: 18.5% (inactive)

## CCOC(=O)c1cc2c(=O)n3cccc(C)c3nc2n(CCc2ccccc2)c1=N
[1]
  inhibition: 17.3% (inactive)

## COc1ccccc1-c1nnc2n1N=C(c1ccc(O)c(O)c1)CS2
[1]
  inhibition: 23% (inactive)

## COC(=O)CCC(=O)Nc1cccc(Cl)c1
[1]
  inhibition: -0.6% (inactive)

## CCN1C(=C2C(=O)c3ccccc3C2=O)C=Cc2ccccc21
[1]
  inhibition: -5% (inactive)

## Cn1c(C(=O)NCCC2=CCCCC2)cc2c(=O)n3ccccc3nc21
[1]
  inhibition: -8% (inactive)

## CCOc1cc(C2C(C#N)=C(N)Oc3n[nH]c(CC)c32)ccc1OCCN1CCOCC1 (configuration not stated)
[1]
  inhibition: -2.3% (inactive)

## Cc1ccccc1CN1CCNC1=O
[1]
  inhibition: -8% (inactive)

## Nc1nc(C(=O)N2CCOCC2)nn1S(=O)(=O)c1ccc(Cl)cc1
[1]
  inhibition: -1.1% (inactive)

## C=CS(=O)(=O)c1ccc(Oc2ccc(S(=O)(=O)C=C)cc2)cc1
[2]
  IC50: 1460 nM

## O=C(COc1ccc2ccccc2c1)N1CCN(C2CCN(Cc3ccccc3)CC2)CC1
[1]
  inhibition: 3.5% (inactive)

## O=C(C1CCC(N2C(=O)C3CC=CCC3C2=O)CC1)N1CCCCC1 (configuration not stated)
[1]
  inhibition: -2.3% (inactive)

## Cc1csc(SCCn2c(N3CCCC3)nc3c2c(=O)[nH]c(=O)n3C)n1
[1]
  inhibition: -7.5% (inactive)

## Clc1ccc(-c2nnc3sc(-c4ccc(Br)o4)nn23)cc1
[1]
  inhibition: 3.4% (inactive)

## O=C(COC(=O)c1ccccc1Oc1ccccc1)NC1CCS(=O)(=O)C1 (configuration not stated)
[1]
  inhibition: -1.2% (inactive)

## Cc1nn(Cc2ccccc2)c(C)c1NC(=O)CCC(=O)O
[1]
  inhibition: -7.5% (inactive)

## N#Cc1c(N)n(CCOC(=O)c2ccc(Cl)cc2)c2nc3ccccc3nc12
[1]
  inhibition: 6.7% (inactive)

## CC12C(=O)N(CCC(=O)O)C(=O)C1C1C=CC2C1 (configuration not stated)
[1]
  inhibition: -5.1% (inactive)

## COc1ccc(CNC(=O)COC(=O)c2n[nH]c3ccccc23)cc1OC
[1]
  inhibition: -3.8% (inactive)

## COc1ccc(N(C)C(=O)CCS(=O)(=O)c2cccc3nonc23)cc1
[1]
  inhibition: -0.8% (inactive)

## CCOC(=O)CCNc1n[nH]c(=O)[nH]c1=O
[1]
  inhibition: 14.4% (inactive)

## COc1cc(C2C(C#N)=C(N)Oc3cc(N)ccc32)cc(OC)c1OC (configuration not stated)
[1]
  inhibition: 23.6% (inactive)

## Cn1c(=O)c2c(nc(CN3CCOCC3)n2CC(O)CO)n(C)c1=O (configuration not stated)
[1]
  inhibition: 3.2% (inactive)

## COc1ccc2c(c1)[nH]c1c(=O)n(CC3CCCO3)cnc12 (configuration not stated)
[1]
  inhibition: -2.7% (inactive)

## COc1ccc(-n2c(Cc3cccn3C)nnc2SCC(=O)Nc2cccc(Cl)c2)cc1
[1]
  inhibition: 3.9% (inactive)

## CN1CCN(c2oc(COc3ccc(-c4ccccc4)cc3)nc2C#N)CC1
[1]
  inhibition: 2.4% (inactive)

## COc1cccc(N2CCN(c3ncnc4c3[nH]c3ccccc34)CC2C)c1 (configuration not stated)
[1]
  inhibition: 66.1%

## O=C(CSc1nnc2ncccn12)N1CCCCCC1
[1]
  inhibition: -3.2% (inactive)

## CC(C)OC(=O)CSc1nnc(Cc2ccccc2)n1Cc1ccco1
[1]
  inhibition: -1.5% (inactive)

## CC[C@]1(O)CC2CN(CCc3c([nH]c4ccccc34)[C@@](C(=O)OC)(c3cc4c(cc3OC)N(C=O)[C@H]3[C@@](O)(C(=O)OC)[C@H](OC(C)=O)[C@]5(CC)C=CCN6CC[C@]43[C@@H]65)C2)C1 (some centres not stated)
[1]
  inhibition: 17.2%

## O=C(Nc1ccc2oc(-c3ccncc3)nc2c1)c1cccs1
[1]
  inhibition: 0.6% (inactive)

## c1cncc(C2Nc3ccccc3-c3nc4ccccc4n32)c1 (configuration not stated)
[1]
  inhibition: -5% (inactive)

## CCn1c(C(=O)N2CCCC(C(=O)O)C2)cc2sccc21 (configuration not stated)
[1]
  inhibition: 1.8% (inactive)

## CCn1c(CSc2ncccn2)nnc1SCC(=O)N1c2ccccc2CC1C (configuration not stated)
[1]
  inhibition: -6.1% (inactive)

## CC(C)CNS(=O)(=O)c1ccc(CCC(=O)NCc2ccco2)cc1
[1]
  inhibition: -5.6% (inactive)

## COc1ccc(S(=O)(=O)N2CCCC2C(=O)Nc2ccc(C)cc2)cc1 (configuration not stated)
[1]
  inhibition: -0.4% (inactive)

## CC(C)CCNC(=O)NC(=O)CSc1nnc(COc2ccccc2Cl)o1
[1]
  inhibition: -7.1% (inactive)

## O=S1(=O)Nc2c(ccc3cccnc23)-c2ccccc21
[2]
  IC50: 2070 nM

## COc1ccccc1CNC(=O)C1CCCN(S(=O)(=O)c2cnc[nH]2)C1 (configuration not stated)
[1]
  inhibition: -1.1% (inactive)

## O=C(CN(Cc1ccco1)C(=O)CNS(=O)(=O)c1ccc(Cl)cc1)NCc1ccc(F)cc1
[1]
  inhibition: -0.8% (inactive)

## COc1ccc(OC)c(NS(=O)(=O)c2ccc(N3CCCC3=O)cc2)c1
[1]
  inhibition: 15.5% (inactive)

## COc1ccc(/C(O)=C2/C(=O)C(=O)N(Cc3ccco3)C2c2cccs2)cc1 (configuration not stated)
[1]
  inhibition: 4.7% (inactive)

## Cc1nc(N)[nH]c(=O)c1CCC(=O)OCC(C)C
[1]
  inhibition: 0% (inactive)

## CCCCOc1ccc(-c2nnn(CC(=O)Nc3ncc(CC(=O)OCC)s3)n2)cc1
[1]
  inhibition: -1.5% (inactive)

## COc1ccc(OC)c(C2C(C#N)=C(N)Oc3cc(C)n(Cc4ccccn4)c(=O)c32)c1 (configuration not stated)
[1]
  inhibition: 4.2% (inactive)

## CC1=CC2=C(OC1N(C)C)c1cccc3cccc(c13)C2=O (configuration not stated)
[1]
  inhibition: 5.4% (inactive)

## O=C(O)c1ccc(COCC(F)(F)C(F)F)o1
[1]
  inhibition: 7.3% (inactive)

## O=C1[C@@H]2C(c3ccccc3Cl)=NO[C@@H]2C(=O)N1Cc1ccccc1
[1]
  inhibition: 0% (inactive)

## Cc1ccc(-n2c(=O)[nH]c3c(C(N)=O)nc(CC(C)C)nc32)cc1
[1]
  inhibition: -5.2% (inactive)

## Cc1cccc(N2CN=c3s/c(=C\c4ccncc4)c(=O)n3C2)c1
[1]
  inhibition: -7.5% (inactive)

## Cc1c(C2Nc3ccccc3NC3=C2C(=O)CC(C)(C)C3)cnn1C (configuration not stated)
[1]
  inhibition: 4.8% (inactive)

## COc1ccc(-c2nc3c(c(SCC(=O)N4CCOCC4)n2)COC(C)(C)C3)cc1
[1]
  inhibition: 1.1% (inactive)

## CC1CCCCN1CCNC(=O)c1ccc2c(=O)n(CCc3ccccc3)c(=O)[nH]c2c1 (configuration not stated)
[1]
  inhibition: 4.4% (inactive)

## O=C(NCCCN1CCCC1=O)C1CCN(S(=O)(=O)N2CCOCC2)CC1
[1]
  inhibition: -10% (inactive)

## CCOc1ccc(C2=Nn3c(nnc3-c3ccccc3OC)SC2)cc1
[1]
  inhibition: 19.7%
